# Several values for one entry are separate records, joined by “and”; a condition that tells them apart may be missing. Identical values can stand only once.
# Assays:
# IM-9 (Multiple myeloma) = test: Cell viability assay (72 h, ViaLight, relative ATP levels); assay type: cell-based, human
# Experimental: (§1) IC50 value for the compound was determined in IM-9 and HCT-116 cells by ViaLight essay as described supra.
# [1] = system: DMS-114 human small cell lung carcinoma cells; test: Sensitization to DNA damaging chemotherapeutic agents, relative ATP viability, 3 days; assay type: cell-based; conditions: 0.75 nM Compound 1 alone, 3 days; one value per experiment series (row agent); 0.00075 µM
# Experimental: Cells were plated in logarithmic growth phase at 500-20,000 cells per well in 96-well clear bottom plates (Corning; Corning, N.Y.) and cultured for 14 to 16 hours prior to the start of drug treatment. Serial dilutions of Compound 2 and Compound 1 were made in DMSO, diluted 1:50 in RPMI-1640 (Hyclone; Logan, Utah) and then added to tissue culture media at a final concentration of 0.2% DMSO. […] Relative ATP levels were determined by the bioluminescent measuring of cellular ATP levels in each culture well with the ViaLight-HS High Sensitivity Cytotoxicity and Cell Proliferation BioAssay Kit (Cambrex Bioproducts, Cat. No. LT07-311; Charles City, Iowa) according to manufacturer's instructions. Briefly, a cell permeabilizing reagent was added to each culture well in media at the time of viability determination, allowing free ATP to be released from viable cells in the culture. Addition of luciferase to the mixture catalyzes the release of light proportional to the amount of free ATP present, which can then be quantified in a Centro LB 960 luminometer (EG&G Berthold; Oak Ridge, Tenn.); the level of ATP is generally directly proportional to the viability of the cells.
# Sigmoidal dose response curves were then generated using non-linear regression analysis of variable slope by Prism Version 4.00 for Windows (GraphPad Software, Inc.; San Diego, Calif.) and IC50 values calculated.
# The IC50 values for the treatment with the DNA damaging agent were calculated relative to control cells that were treated with DMSO only.
# [2] = system: NAD^+ synthesis in HeLa cells and HeLa cell extracts; test: Conversion of ^14C nicotinamide or ^14C nicotinic acid to ^14C-labeled NAD^+ (TLC); conditions: Compound 1 20 nM
# Experimental: In vivo: HeLa cells (1×10^6 per sample) were plated 14-16 hours prior to the start of drug treatment. […] Cells were harvested by trypsinization and collected by centrifugation, and cell pellets resuspended in 50 μl of 10 mM NaH2PO4. To extract the radiolabeled nucleotide metabolites, the cells were lysed by 6 freeze-thaw cycles of liquid nitrogen/37° C. water bath. Precipitates were removed by centrifugation at 13,000 g for 20 mins.
# In vitro: Untreated HeLa cells were harvested by trypsinization, collected by centrifugation and resuspended at 2.5×10^7 cells/mL in 10 mM NaH2PO4 buffer then cell extracts were made by 6 freeze-thaw cycles as above and cell extracts clarified by centrifugation at 23,000 g at 4° C. for 90 mins. […] The reaction was terminated by incubation at 100° C. for 2 mins. The radiolabeled nucleotides were separated by thin-layer chromatography and identified by comparison with radiolabeled standards of NAD^+, its precursors and metabolites (Moravek Biochemicals; Brea, Calif.). Approximately 10 μL of each sample was spotted onto Silica gel 60 plates (Merck KGaA, EMD chemicals Inc; Gibbstown, N.J.) and resolved in a solvent of isobutyric acid: ammonium hydroxide:water (66:1:33) overnight. The dried TLC plates were then exposed to BAS-MS screens (Fuji Photo Film Co. LTD; Kanagawa, Japan) for 2-3 days, scanned on a Typhoon Imager (Amersham; Piscataway, N.J.). […]
# human NMPRT = human NMPRT (Homo sapiens, UniProt P43490); test: Recombinant NMPRT coupled-enzyme fluorescence assay; assay type: biochemical; parameters: made in house; host or cells: E. coli BL21(DE3)pLysS; conditions: two independent experiments; Cheng-Prusoff; His-Flag tagged recombinant NMPRT
# Sequence of human NMPRT (P43490 whole entry): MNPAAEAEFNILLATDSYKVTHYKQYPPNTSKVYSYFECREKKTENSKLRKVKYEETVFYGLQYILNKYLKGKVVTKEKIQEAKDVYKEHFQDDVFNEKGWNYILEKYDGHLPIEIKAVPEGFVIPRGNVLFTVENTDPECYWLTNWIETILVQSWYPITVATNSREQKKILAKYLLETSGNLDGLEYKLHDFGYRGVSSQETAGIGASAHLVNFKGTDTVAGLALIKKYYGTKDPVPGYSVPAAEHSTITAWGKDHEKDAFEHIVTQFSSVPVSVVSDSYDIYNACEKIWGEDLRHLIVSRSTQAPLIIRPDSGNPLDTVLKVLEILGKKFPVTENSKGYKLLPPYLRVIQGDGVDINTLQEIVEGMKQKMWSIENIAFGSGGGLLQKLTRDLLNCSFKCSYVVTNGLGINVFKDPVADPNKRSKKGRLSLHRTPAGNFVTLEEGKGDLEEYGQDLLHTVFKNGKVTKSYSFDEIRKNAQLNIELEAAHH
# Experimental: Human NMPRT cDNA (Origene; Rockville, Md.) was cloned into the pET151 vector (Invitrogen; Carlsbad, Calif.). The resulting construct encodes a recombinant NMPRT protein with hexahistidine and FLAG epitope tags at the NH2-terminus. Four liters of BL21(DE3)pLysS bacteria (Invitrogen; Carlsbad, Calif.) at O.D. ˜0.6 in LB media were induced to express the NMPRT protein with 200 μM IPTG (Roche Diagnostics; Mannheim, Germany) for 3.5 hours with shaking (250 rpm) at 37° C. The bacterial cells were harvested by centrifugation at 6,000 g for 15 minutes at 4° C., the supernatant was discarded and the cells frozen at −20° C. […] The protein concentration was determined by Bradford assay (Bio-Rad; Hercules, Calif.).
# The activity of recombinant NMPRT was assessed using a coupled-enzyme fluorescence assay based on the quantitation of NAD^+. […] Fluorescence was measured using a Tecan Safire plate reader (Tecan-US; Durham, N.C.) with an excitation wavelength of 560 nm and emission wavelength of 590 nm. The Km for nicotinamide was determined for every preparation of the enzyme and a titration of NAD^+ was run with every assay to ensure that measurements were within the linear range. […] The Ki was calculated using Prism version 4.0 (Graphpad Software, Inc; San Diego, Calif.) and the Cheng-Prusoff Equation. […]
# as §1
substance,measurement,setting,value
4-[N′-cyano-N″-(6-(4-chlorophenoxy)-hexyl)-N-guanidino]-pyridine [Compound 1],IC50,IM-9 (Multiple myeloma),3.33 ± 0.66 nM
same,"Percent viability of DMS-114 cells, 0.75 nM Compound 1 (no DNA damaging chemotherapeutic agent)",[1],47.7 ± 12% and 61.9 ± 16% and 57.9% and 53.20 ± 9.1%
same,NAD^+ synthesis from nicotinamide,[2]; ^14C nicotinamide,blocks
same,NAD^+ synthesis from nicotinic acid,[2]; ^14C nicotinic acid,not
same,Ki,human NMPRT,1 nM
